This is an account of results in US9096543B2, “Nuclear transport modulators and uses thereof” (Karyopharm Therapeutics Inc., priority 2012, dated 2015).

Experiment [1] relates to skin wounds. Description: Longitudinal full thickness skin incision wound model in mice. The experiment is classed as in vivo, C57BL/6J mice. The following applies: Day 5 post-wounding; oral 4 or 7.5 mg/kg every other day, or topical 1 or 2.5 μM daily. The text has this:
The effects of Compound 1 on skin wound healing were studied in a mouse longitudinal full thickness skin incision wound model. Upon arrival, animals were identified by ear tags, weighed and left to acclimate for several days before initiation of the experiment. On the day of wounding, mice were weighed and divided into 6 experimental groups with 6 animals per group, in accordance to weight differences stratified randomization. Prior to the surgical procedure, mice were anesthetized with isoflurane and the back of the animals was trimmed. Full thickness longitudinal incisions of 20 mm were performed using a standard scalpel blade on the backs of the animals (parallel to the backbone). Three hours after wounding, due to skin elasticity and activity of the animals, the incisions took on elliptical shapes. At this stage, the widest area of the wound was measured to establish a baseline wound width. Wound healing evaluation was made by measuring the widest area of the wound. Treatment groups consisted of oral gavage or topical groups. During the experiment, wounds were photo-documented and morphological analysis was performed. At the end of the experiment, 8 days post wounding, mice were sacrificed, wound widths were measured and biopsies of the wound area were collected and subjected to analysis.
Dosing solutions were prepared fresh on each day of dosing. […]

The subject of experiment [2] is collagen-induced arthritis. The experiment can be described thus: Collagen-induced arthritis (CIA) in Lewis rats. The experiment is classed as in vivo. The method, then:
Forty (40) female Lewis rats (BK), aged 6 to 8 weeks with a pre-treatment body weight range of 180 to 200 g were divided randomly into four (4) groups (Groups A-D) of ten (10) rats each. The rats in Groups B to D were immunized intradermally with bovine CII in IFA at three sites near the base of the tail and over the back with 500 μl, of the emulsion on day 0 (200 μL, 200 μL, 100 μL for each site). On day 7, the rats in Groups B-D were given booster injections with the same amount of the emulsion intradermally near the former injection sites. […] Rats were weighed daily and a drug holiday was given to an animal when a weight loss of greater than 13%. CIA development was evaluated via macroscopic scoring and measurements of paw swelling. […] Foot volume was measured by plethysmometry on the same day of the arthritic measurement throughout the study period. The cubage of each hind paw and swelling rate were measured and using the following equation: Swelling Rate=(CN−C0)/C0×100%. […] The clinical scores were summed for each animal, and the total average of all animals in each group was expressed as the mean arthritic score. […] Prepared sections of hind paws were subjected to hematoxylin and eosin (H&E) staining.

Experiment [3] concerns A549 xenograft tumors. Description: A549 lung carcinoma xenograft model. The experiment is classed as in vivo, CB-17 SCID mice. Here is the method: The A549 cell line was derived from explant culture of alveolar carcinoma tissue from a person. The cells were grown in Ham's F12-K tissue culture media with 10% fetal calf serum and 1% penicillin/streptomycin. Cells were routinely trypsinized and passaged 1:10. Thirty-two (32) female CB-17 SCID mice (Charles River Labs strain code 236), aged 5 to 6 weeks were used with a mean pre-treatment body weight of 16.3 grams. Mice were divided into four (4) groups of eight (8) prior to the initiation of treatment based on tumor volume. On the day of implantation, cells were washed in PBS, trypsinized and resuspended in complete media to a density of 2×10^7 cells/mL prior to being mixed with an equal volume of Matrigel. This mixture was then inoculated subcutaneously into mice in a volume of 0.1 mL using a 23 G needle.
Animal weights and condition were recorded daily, and tumors were measured on Mondays, Wednesdays and Fridays with micro-calipers, and tumor volume was calculated as (length×width×width)/2.
Animals with weight loss of more than 20% of their starting weight were euthanized. Mice with weight loss of more than 15% of their starting weight were not treated again until weight loss recovered to less than 5% of their starting weight. Any animals with a tumor volume of more than 1500 mm^3 were euthanized.
Dosing solutions were prepared fresh on each day of dosing. Compound 2 was supplied as a lyophilized powder containing 69.61% Compound 2 with the balance made up of Pluronic F-68 and PVP K29/32. This was prepared by dissolving the lyophilized powder in sterile water. Cisplatin was dissolved at 5 mg/mL in DMSO and diluted 1:10 in sterile water for injection. All test articles were administered in a volume of 0.1 mL/10 g body weight.
Statistical differences between treatment groups were determined using Mann-Whitney Rank Sum or ANOVA tests with a critical value of 0.05.

In experiment [4] the test system is diet-induced obesity. Description: Diet-induced obesity (DIO) model. Type of experiment: in vivo, Sprague-Dawley rats. The method, then:
Male Sprague-Dawley rats of age 2 months were placed on a high fat diet (Research Diets Inc., product code D12492, 60% kcal % fat) for 3 months. A group of age-matched rats were fed normal lab chow (LabDiet 5001, ˜13% kcal % fat), these animals served as controls for DIO group.
At age 4 months, and 2 months into placement of high fat diet, all rats were allocated into 3 groups of N=7 based on equivalent body weights and food intakes. Body weights and food and water intakes were measured at approximately the same time each day. On treatment days, dosing was at approximately 2 hours before lights off.
The DIO control group was treated with vehicle (oral, 10 mL/kg dose volume; 0.5% Pluronic F68 and 0.5% PVP K29/32 in water) on each weekday. The Compound 21.5 mg/kg group was orally treated on each weekday throughout the treatment phase (dose 10 mL/kg dose volume; 0.5% Pluronic F68 and 0.5% PVP K29/32 in water). The Compound 2 3 mg/kg group (10 mL/kg dose volume; 0.5% Pluronic F68 and 0.5% PVP K29/32 in water) was orally treated initially once daily on each weekday for week 1, then twice weekly (Monday, Wednesday) for week 2. During treatment weeks 3 and 4, Compound 2 3 mg/kg treatment continued twice weekly, except dosing was on Monday and Thursday.
Prior to the treatment phase, 3 days baseline data were collected. The treatment phase was for 4 weeks. A washout phase of 10 days was also included.
Compound 2 was supplied in powder form. […] Active percentage was adjusted using BEW of 1.437 and prepared by dissolving into 0.5% w/v Pluronic F-68 and 0.5% w/v PVP K-29-32 vehicle solution. The vehicle solution was prepared on a weekly basis while Compound 2 was prepared fresh every 2 days and stored at +4° C. Animals were dosed at a volume of 10 mL/kg. Individual doses were calculated based on the most recent body weights to provide the proper mg/kg/day dosage.

Structures are written as SMILES. Entries after “also recorded” stand apart in the source; their conditions may differ.

In the case of `CC(C)(C)C(=O)NNC(=O)/C=C\n1cnc(-c2cc(C(F)(F)F)cc(C(F)(F)F)c2)n1` [Compound 1, (Z)-3-(3-(3,5-bis(trifluoromethyl)phenyl)-1H-1,2,4-triazol-1-yl)-N′-pivaloylacrylohydrazide], the wound morphology assessment result in experiment [1] is “positive effect; also recorded: displayed efficacy, and had a positive impact on wound healing; also recorded: better wound healing, as measured by wound size reduction and better scabbing properties”.

As for `O=C(/C=C\n1cnc(-c2cc(C(F)(F)F)cc(C(F)(F)F)c2)n1)NNC(=O)CN1CCOCC1` [Compound 2, (Z)-3-(3-(3,5-bis(trifluoromethyl)phenyl)-1H-1,2,4-triazol-1-yl)-N′-(2-morpholinoacetyl)acrylohydrazide], the “therapeutic efficacy (Clinical Scores, Joint Swelling, histological examination)” value in experiment [2] (4 mg/kg (MPK) PO QoD from onset to day 28) is on record as “showed the therapeutic efficacy”. Moreover, in experiment [2] (day 28, 4 mg/kg PO QoD from onset), the “histopathological analysis of hind paws (H&E)” value is “relatively intact cartilage was found on the joint surface and pannus formation was minimal”. Also, in experiment [3] (Compound 2 10 mg/kg PO, p=0.0005, 10 mg/kg), the “tumor volume AUC compared to vehicle control (one-way ANOVA)” value is recorded as “statistically significant difference”. Further, the antitumor effect result in experiment [3] (Compound 2 orally, 5 and 10 mg/kg) was “had an antitumor effect at both 5 mg/kg and 10 mg/kg doses in a dose dependent manner”. Besides, the “daily food intake and body weight compared to DIO control group” value in experiment [4] (1.5-3 mg/kg oral, 28 day treatment period) is “dose-related decrease in daily food intake and body weight; also recorded: decreases daily food intake in a dose dependent manner”. Besides, in experiment [4] (1.5 and 3 mg/kg, treatment days 7 (study day 10) and 14 (study day 17)), the “body weight gain (percentage of body weight change from study day 3) compared to DIO controls” value is given as “significant reduction in weight gain”. Moreover, the “body weight over the washout phase” value in experiment [4] (washout phase, both Compound 2 groups) is listed as “remained lower than DIO controls”.
